Measured values: ChEMBL document CHEMBL6153107, “Derailment of the Biosynthesis via an Acid-Mediated Intramolecular Cyclo-rearrangement Leads to a Novel Cytochalasin Skeleton” (J Nat Prod, 2025)
The source made the active and inactive calls. The rule behind the calls is not given here.

Key:
HeLa [1] = assay: Binding affinity to F-actin in human HeLa cells assessed as disruption of cytoskeleton organization by measuring transforming regular fibrous into punctuate structure at 12.3 uM incubated for 48 hrs by tetramethylrhodamine-phalloidin staining based confocal laser scanning microscopy; format: cell-based
HeLa [2] = assay: Induction of cell cycle arrest in human HeLa cells assessed as accumulation of cells G2/M phase incubated for 48 hrs by DAPI staining based high-content imaging analysis; format: functional
RKO [3] = assay: Binding affinity to F-actin in human RKO cells assessed as disruption of cytoskeleton organization by measuring transforming regular fibrous into punctuate structure at 11.1 uM incubated for 48 hrs by tetramethylrhodamine-phalloidin staining based confocal laser scanning microscopy; format: cell-based
HeLa [4] = assay: Cytotoxicity against human HeLa cells assessed as inhibition of cell growth incubated for 48 hrs by DAPI staining based high-content imaging analysis; format: functional
RKO [5] = assay: Cytotoxicity against human RKO cells assessed as inhibition of cell growth incubated for 48 hrs by DAPI staining based high-content imaging analysis; format: functional
RKO [6] = assay: Induction of cell cycle arrest in human RKO cells assessed as accumulation of cells at G2/M phase incubated for 48 hrs by DAPI staining based high-content imaging analysis; format: functional
RKO [7] = assay: Binding affinity to F-actin in human RKO cells assessed as disruption of cytoskeleton organization by measuring transforming regular fibrous into punctuate structure at 0.8 uM incubated for 48 hrs by tetramethylrhodamine-phalloidin staining based confocal laser scanning microscopy; format: cell-based
HeLa [8] = assay: Binding affinity to F-actin in human HeLa cells assessed as disruption of cytoskeleton organization by measuring transforming regular fibrous into punctuate structure at 0.9 uM incubated for 48 hrs by tetramethylrhodamine-phalloidin staining based confocal laser scanning microscopy; format: cell-based
RKO [9] = assay: Binding affinity to F-actin in human RKO cells assessed as disruption of cytoskeleton organization by measuring transforming regular fibrous into punctuate structure at 16.7 uM incubated for 48 hrs by tetramethylrhodamine-phalloidin staining based confocal laser scanning microscopy; format: cell-based
HeLa [10] = assay: Binding affinity to F-actin in human HeLa cells assessed as disruption of cytoskeleton organization by measuring transforming regular fibrous into punctuate structure at 27.8 uM incubated for 48 hrs by tetramethylrhodamine-phalloidin staining based confocal laser scanning microscopy; format: cell-based
HeLa [11] = assay: Binding affinity to F-actin in human HeLa cells assessed as disruption of cytoskeleton organization by measuring transforming regular fibrous into punctuate structure at 50 uM incubated for 48 hrs by tetramethylrhodamine-phalloidin staining based confocal laser scanning microscopy; format: cell-based
RKO [12] = assay: Binding affinity to F-actin in human RKO cells assessed as disruption of cytoskeleton organization by measuring transforming regular fibrous into punctuate structure at 50 uM incubated for 48 hrs by tetramethylrhodamine-phalloidin staining based confocal laser scanning microscopy; format: cell-based
RKO [13] = assay: Binding affinity to F-actin in human RKO cells assessed as disruption of cytoskeleton organization by measuring transforming regular fibrous into punctuate structure at 33.5 uM incubated for 48 hrs by tetramethylrhodamine-phalloidin staining based confocal laser scanning microscopy; format: cell-based
RKO [14] = assay: Binding affinity to F-actin in human RKO cells assessed as disruption of cytoskeleton organization by measuring transforming regular fibrous into punctuate structure at 1.6 uM incubated for 48 hrs by tetramethylrhodamine-phalloidin staining based confocal laser scanning microscopy; format: cell-based
HeLa [15] = assay: Binding affinity to F-actin in human HeLa cells assessed as disruption of cytoskeleton organization by measuring transforming regular fibrous into punctuate structure at 2 uM incubated for 48 hrs by tetramethylrhodamine-phalloidin staining based confocal laser scanning microscopy; format: cell-based

Compound	Activity (HeLa [1])	Activity (HeLa [2])	Activity (RKO [3])	IC50 (HeLa [4])	IC50 (RKO [5])	Activity (RKO [6])	Activity (RKO [7])	Activity (HeLa [8])	Activity (RKO [9])	Activity (HeLa [10])	Activity (HeLa [11])	Activity (RKO [12])	Activity (RKO [13])	Activity (RKO [14])	Activity (HeLa [15])
CC(=O)O[C@@H]1/C=C/[C@](C)(O)C[C@@H](C)C/C=C/[C@H]2C=C(C)[C@@H](C)[C@H]3[C@H](Cc4ccccc4)NC(=O)[C@]321	Active	Dose-dependent-effect	Active	12.3 µM	11.1 µM	Dose-dependent-effect									
C=C1[C@@H](C)[C@H]2[C@H](Cc3ccccc3)NC(=O)[C@]23[C@H](OC(C)=O)/C=C/[C@](C)(O)C[C@@H](C)C/C=C/[C@H]3[C@@H]1O		Dose-dependent-effect		0.9 µM	0.8 µM	Dose-dependent-effect	Active	Active							
CC1=C[C@H]2[C@H]3OC(=O)[C@@]24C(=N[C@@H](Cc2ccccc2)[C@@H]4[C@@H]1C)C[C@H]1[C@H]3C[C@H](C)C[C@@]1(C)O		Dose-dependent-effect		27.8 µM	16.7 µM	Dose-dependent-effect			Active	Active					
CC1=C[C@@H]2[C@@H](C[C@H](C)C1)[C@@H](O)[C@H]1C=C(C)[C@@H](C)[C@H]3[C@H](Cc4ccccc4)NC(=O)[C@]31[C@@H]2O		Dose-dependent-effect		> 50 µM	47.3 µM	Dose-dependent-effect					Active	Active			
CC1=C[C@@H]2/C=C/C[C@H](C)C[C@@](C)(O)/C=C/[C@@H](O)[C@]23C(=O)N[C@@H](Cc2ccccc2)[C@@H]3[C@@H]1C		Dose-dependent-effect		> 50 µM	33.5 µM	Dose-dependent-effect					Active		Active		
CC1=C[C@@H]2[C@@H]3[C@H](/C=C(/C)C[C@@H](C)C[C@H]3O)[C@@H](O)[C@]23C(=O)N[C@@H](Cc2ccccc2)[C@@H]3[C@@H]1C		Dose-dependent-effect		> 50 µM	45.2 µM	Dose-dependent-effect					Active	Active			
CC1=C[C@@H]2/C=C/C[C@H](C)C[C@@](C)(O)/C=C/C(=O)[C@]23C(=O)N[C@@H](Cc2ccccc2)[C@@H]3[C@@H]1C		Dose-dependent-effect		2 µM	1.6 µM	Dose-dependent-effect								Active	Active
